Laboratory results as given in ChEMBL document CHEMBL6109054, “Development of novel GI-centric prostaglandin E2 receptor type 4 (EP4) agonist prodrugs as treatment for ulcerative colitis and other intestinal inflammatory diseases” (Bioorg Med Chem Lett, 2025).
Active and inactive are the calls of the source. No cut-off for these calls is given here.

Columns and labels:
[1] = Prodrug conversion in mouse gut assessed as 7(R)-(2-((R,E)-4,4-difluoro-3-hydroxy-4-phenyl)but-1-en-1-yl)-5-oxopyrrolidin-1-yl)heptanoic acid formation by measuring half-life at 100 uM; format: ADME, tissue-based
[2] = Prodrug conversion in mouse blood assessed as 7(R)-(2-((R,E)-4,4-difluoro-3-hydroxy-4-phenyl)but-1-en-1-yl)-5-oxopyrrolidin-1-yl)heptanoic acid formation administered orally with 1 mg/kg equivalent dose of active drug and measured after 0.5 hrs by LC/MS/MS analysis; format: ADME, organism-based; details: in vivo, po
[3] = Prodrug conversion in mouse colon assessed as 7(R)-(2-((R,E)-4,4-difluoro-3-hydroxy-4-phenyl)but-1-en-1-yl)-5-oxopyrrolidin-1-yl)heptanoic acid formation by measuring half-life; format: ADME, tissue-based; details: in vivo
Mus musculus [4] = assay: Anti-inflammatory activity in rectal dosed DSS-induced mouse model assessed as reduction in inflammatory cell infiltration treated as prodrug for 8 days; format: functional, organism-based; details: route rec, time 8.0 day
[5] = Stability of compound in PBS buffer at pH 7.2 at 200 ug/mL measured over 170 hrs; format: physicochemical; details: pH 7.2, 170 h, at 200 µg/mL
[6] = Prodrug release in PBS buffer at pH 2 assessed as release of 7(R)-(2-((R,E)-4,4-difluoro-3-hydroxy-4-phenyl)but-1-en-1-yl)-5-oxopyrrolidin-1-yl)heptanoic acid by measuring half-life; format: ADME
[7] = Prodrug conversion in mouse blood assessed as concentration of 7(R)-(2-((R,E)-4,4-difluoro-3-hydroxy-4-phenyl)but-1-en-1-yl)-5-oxopyrrolidin-1-yl)heptanoic acid administered as rectal dose and measured after 1 hr; format: ADME, tissue-based; details: other, route rec
Mus musculus [8] = assay: Anti-inflammatory activity in rectal dosed DSS-induced mouse model assessed as reduction in epithelial cell damage treated as prodrug for 8 days; format: functional, organism-based; details: route rec, time 8.0 day
[9] = Prodrug conversion in mouse serum assessed as 7(R)-(2-((R,E)-4,4-difluoro-3-hydroxy-4-phenyl)but-1-en-1-yl)-5-oxopyrrolidin-1-yl)heptanoic acid release by measuring half-life; format: ADME, cell-free
[10] = Toxicity in rectal dosed mouse assessed as body weight loss administered for 8 days; format: organism-based; details: in vivo, other, 192 h, route rec, time 8 day
[11] = Prodrug conversion in mouse blood assessed as 7(R)-(2-((R,E)-4,4-difluoro-3-hydroxy-4-phenyl)but-1-en-1-yl)-5-oxopyrrolidin-1-yl)heptanoic acid formation administered orally with 1 mg/kg equivalent dose of active drug and measured for 1 to 4 hrs by LC/MS/MS analysis; format: ADME, organism-based; details: in vivo, po, time 1-4 hrs
[12] = Stability of compound in PBS buffer at pH 9 at 200 ug/mL measured over 170 hrs; format: physicochemical; details: pH 9, 170 h, at 200 µg/mL
Mus musculus [13] = assay: Anti-inflammatory activity in rectal dosed DSS-induced colitis mouse model assessed as increase in colon length treated as prodrug for 8 days; format: functional, organism-based; details: route rec, time 8.0 day
[14] = Prodrug conversion in human plasma assessed as 7(R)-(2-((R,E)-4,4-difluoro-3-hydroxy-4-phenyl)but-1-en-1-yl)-5-oxopyrrolidin-1-yl)heptanoic acid release by measuring half-life; format: ADME, cell-free
[15] = Prodrug conversion in mouse ileum assessed as 7(R)-(2-((R,E)-4,4-difluoro-3-hydroxy-4-phenyl)but-1-en-1-yl)-5-oxopyrrolidin-1-yl)heptanoic acid formation by measuring half-life; format: ADME, tissue-based; details: in vivo
[16] = Prodrug conversion in blood of DSS-induced colitis mouse model assessed as 7(R)-(2-((R,E)-4,4-difluoro-3-hydroxy-4-phenyl)but-1-en-1-yl)-5-oxopyrrolidin-1-yl)heptanoic acid formation administered as rectal dose and measured after 7 days by LC/MS/MS analysis; format: ADME, tissue-based; details: other, 168 h, route rec, time 7 day
[17] = Prodrug conversion in blood of DSS-induced colitis mouse model assessed as 7(R)-(2-((R,E)-4,4-difluoro-3-hydroxy-4-phenyl)but-1-en-1-yl)-5-oxopyrrolidin-1-yl)heptanoic acid formation administered as rectal dose and measured after 4 days by LC/MS/MS analysis; format: ADME, tissue-based; details: other, 96 h, route rec, time 4 day
Mus musculus [18] = assay: Anti-inflammatory activity in rectal dosed DSS-induced colitis mouse model assessed as change in disease activity index (DAI) treated as prodrug for 8 days; format: functional, organism-based; details: route rec, time 8.0 day
[19] = Elimination half-life in rat; format: ADME; details: in vivo, read-out: beta t1/2
[20] = Drug uptake in mouse blood administered as rectal dose and measured after 1 hrs; format: ADME, tissue-based; details: route rec, read-out: Ct

**Q.** What does the source list for `O=C(O)CCCCCCN1C(=O)CC[C@@H]1/C=C/[C@@H](OCOP(=O)(O)O)C(F)(F)c1ccccc1`?
**A.** t1/2 [1]: < 0.083 h; Drug metabolism [2]: metabolite_detected; t1/2 [3]: 0.333 h; Activity (Mus musculus [4]): Active; Stability [5]: Stable; t1/2 [6]: ~ 300 hr; Drug metabolism [7]: 5.4 ng/mL; Activity (Mus musculus [8]): Active; t1/2 [9]: 3.3 h; Activity [10]: Non-toxic; Drug metabolism [11]: metabolite_detected; Stability [12]: Stable; Activity (Mus musculus [13]): Active; t1/2 [14]: 1.5 h; t1/2 [15]: 9 min; Drug metabolism [16]: 1.5 ng/mL; Drug metabolism [17]: 1.5 ng/mL; Activity (Mus musculus [18]): Not active; Little Or No Change Observed

**Q.** Which half-life [19] does the source give for `O=C(O)CCCCCCN1C(=O)CC[C@@H]1/C=C/[C@@H](O)C(F)(F)c1ccccc1` here?
**A.** < 1 h

**Q.** And the Activity [10]?
**A.** Non-toxic

**Q.** And the concentration at 1 h [20]?
**A.** 35.8 ng/mL

**Q.** With `CCOC(=O)CCCCCCN1C(=O)CC[C@@H]1/C=C/[C@@H](OC(OP(=O)(O)O)c1ccccc1)C(F)(F)c1ccccc1` (stereo partly specified) as the compound, how does the t1/2 [1] read?
**A.** 0.667 h

**Q.** What about the t1/2 [14] of the same compound?
**A.** 45 h

**Q.** With `O=C1CC[C@H](/C=C/[C@@H](O)C(F)(F)c2ccccc2)N1CCCCCCc1nnn[nH]1` as the compound, how does the half-life [19] read?
**A.** > 24 h

**Q.** Which results are given for `O=C(O)CCCCCCN1C(=O)CC[C@@H]1/C=C/[C@@H](OC(OP(=O)(O)O)c1ccccc1)C(F)(F)c1ccccc1` (stereo partly specified)?
**A.** Drug metabolism [2]: metabolite_detected; Drug metabolism [7]: 2.6 ng/mL; Drug metabolism [11]: metabolite_detected

**Q.** Which t1/2 [1] does the source give for `CCOC(=O)CCCCCCN1C(=O)CC[C@@H]1/C=C/[C@@H](OC(C)OP(=O)(O)O)C(F)(F)c1ccccc1` (stereo partly specified) here?
**A.** < 0.083 h

**Q.** And the t1/2 [14]?
**A.** 10.4 h

**Q.** Which results are given for `CCCC(O[C@H](/C=C/[C@H]1CCC(=O)N1CCCCCCC(=O)OCC)C(F)(F)c1ccccc1)OP(=O)(O)O` (stereo partly specified)?
**A.** t1/2 [1]: < 0.083 h; t1/2 [14]: 12.7 h
